Results taken from PMC11388019, “Autoregulatory mechanism of enzyme activity by the nuclear localization signal of lysine-specific demethylase 1 [drawing 1]” (The Journal of Biological Chemistry, 2024).
Entries after “also recorded” stand apart in the source; their conditions may differ. Like-named read-outs stand apart in the source and are kept apart here.

What was measured:
ΔN LSD1-CoREST [1] = molecular target: T1, ΔN LSD1-CoREST (Homo sapiens, UniProt O60341+Q9UKL0); experiment: Horseradish peroxidase (HRP) coupled demethylase assay on 21 a.a. H3K4me2 peptide substrate; format: biochemical; conditions: for effect of peptide on LSD1 demethylation activity (absorbance vs time): 10 μM peptide, 10 μM H3K4me2 21 aa substrate; for effect of peptide on LSD1 demethylation activity (absorbance vs time) / Ki: 0.3 μM ΔN LSD1-CoREST; for effect of peptide on LSD1 demethylation activity (absorbance vs time) / Ki / acts as substrate of LSD1: HRP-coupled assay; for Ki: H3K4me2 (1-21) peptide 10-60 μM, 50 mM Hepes pH 7.5, 25 °C, competitive fit, N = 2, read-out: inhibition constant Ki (Ki app) on H3K4me2 peptide substrate; for fold weaker inhibition (Ki) compared to the NLS peptide: 21 aa H3K4me2 model peptide substrate; for acts as substrate of LSD1: 10 μM peptide alone
T1 construct: The N terminally truncated (aa 171–852) LSD1 plasmid (pGEX-6P-1-ΔN LSD1); GST (cleaved yes); made in house; host or cells: E. coli Rosetta (DE3) pLysS, co-expression
Experimental: An inhibition study was performed using horseradish peroxidase (HRP) coupled demethylase assay in the presence of NLS, P1, or P2 peptides, using the 21 a.a H3K4me ([2]) peptide as substrate ([9], [38]). […] When a full inhibition study was performed using different concentrations of the 21 a.a. […] Control experiments indicate that the NLS peptide directly influences the LSD1 catalyzed reaction and that inhibition is not an artifact of the HRP-coupled assay system (Fig. S8).
LSD1-CoREST activity assays were performed using well-established peroxidase-coupled assay that monitors H2O2 production under aerobic conditions ([48]). Initial velocity measurements were measured using a Shimadzu UV2600 UV-Visible spectrophotometer equipped with thermostated cell holder (T = 25 °C). ΔN LSD1-CoREST was buffer exchanged into 25 mM Hepes pH 7.4, 100 mM NaCl, and 5 mM TCEP buffer. Each 150 μl reaction mixture contained 50 mM Hepes (Na) pH 7.5, 0.3 μM ΔN LSD1-CoREST, 1 μg of HRP, 0.1 mM 4-aminoantipyrine, and contained various substrate concentrations (10, 20, 30, 40, and 60 μM). Enzyme reactions were initiated by the addition of substrate; H3K4me2 peptide aa 1 to 21 or the NLS-K114me2 peptide (107–120, dimethylated at K114), into the reaction mixture in quartz cuvette. Activity region monitored was 0 to 30 s, and total time of each measurement was 180 s. Baseline correction was done at 505 to 525 nm. Changes in absorbance were measured at 515 nm wavelength and initial velocity calculations were done using an extinction coefficient of 26,000 M^−1 cm^−1 by Graphpad Prism (http://www.graphpad.com). Initial velocity values obtained from absorbance versus time graph, and they were fitted to Michaelis-Menten equation nonlinear regression and obtained Vmax (maximum velocity), apparent kmax (turnover number) and Km (Michaelis constant).
Peptide inhibition assays in presence of model substrate were conducted as follows using a peroxidase-coupled assay that monitors H2O2 production under aerobic conditions. A 150 μl reaction mixture contained 50 mM Hepes (Na) pH 7.5, 0.3 μM ΔN LSD1-CoREST, 1 μg of HRP, 0.1 mM 4-aminoantipyrine, 1.0 mM 3,5-dichloro-2- hydroxybenzenesulfonic acid, NLSK114me2 10 μM (as inhibitor and substrate)/NLSp∗ 10 μM/NLS 10 μM/P1 10 μM/P2 10 μM and H3K4me2 21aa substrate 10 μM. Enzyme reactions were initiated by the addition of substrate; H3K4me2 peptide aa (1–21) into the reaction mixture in quartz cuvette. Initial velocity values obtained from absorbance versus time graph were fitted to inhibition models using nonlinear regression fit. Complete kinetics profiles were performed for the NLS and NLSp∗ peptides, where different concentrations of NLS (0, 2.5 μM, 5 μM, 10 μM) or NLSp∗ (0, 10 μM, 40 μM, 100 μM) were incubated with freshly prepared ΔN LSD1-CoREST.

ΔN LSD1-CoREST [2] = molecular target: T1, ΔN LSD1-CoREST; experiment: Quantitative Western blot assay of demethylation on H3K4me2 nucleosome substrates in presence of NLS peptide; format: biochemical; conditions: 2 μM ΔN LSD1-CoREST, 100 nM H3K4me2 nucleosome (147 bp DNA), 50 mM Hepes pH 8.0, 50 mM KCl, 25 °C, from relative kobs, Hill coefficient set to 1, N = 2; read-out: IC50 for inhibition of demethylation on H3K4me2 nucleosome substrates
Excerpt: Based on these coupled assay results and data (Fig. 2, C and D), we developed an in vitro quantitative WB assay to monitor LSD1-catalyzed demethylation on H3K4me2 nucleosome substrates. This approach provides enhanced reliability of the antibody reagents as well as a robust measure of the impact of the NLS peptide on LSD1’s ability to demethylate nucleosomes ([39]). A series of time-course assays with increasing NLS peptide measured the fraction of demethylated H3K4me2 nucleosomes containing a 147 bp DNA, and this was visualized using an anti-H3K4me2-specific antibody or a control H3 antibody (Fig. 4, B and C). Here, dividing the H3K4me2 antibody signal by the H3 antibody signal allowed for quantitation of each data point, where the disappearance of H3K4me2 signal directly corresponds to the NLS's ability to impact LSD1’s demethylation activity. The H3K4me2/H3 ratios were normalized at time zero and plotted as a function of time (minutes), and the determined rate constant (kobs) values were evaluated at increasing NLS concentrations (Fig. 4, B and C).
Quantitative WB activity assays of the ΔN LSD1- CoREST and FL-LSD1- CoREST at 2, 5, 10, and 20 μM concentrations were performed in reaction conditions containing 50 mM Hepes (pH 8.0), 50 mM KCl, 5% glycerol, and 1 mM TCEP and were initiated with 100 nM nucleosome substrate. […]

LSD1 = conditions: H3K4me2 model peptide substrate, Ki/M, read-out: Ki (Ki app), Table S4, cited from earlier work
Excerpt: Comparative (Ki app) data of peptide sequences that inhibit LSD1-catalytzed demethylation on a H3K4me2 model (peptide) substrate.

For `CC(=O)NCC(=O)N[C@@H](CCCNC(=N)N)C(=O)N[C@@H](CCCNC(=N)N)C(=O)N[C@H](C(=O)N[C@@H](CO)C(=O)N[C@@H](CCCNC(=N)N)C(=O)N[C@@H](CCCNC(=N)N)C(=O)N[C@@H](CCCCN)C(=O)N[C@@H](CCCNC(=N)N)C(=O)N[C@@H](C)C(=O)N[C@@H](CCCCN)C(=O)N[C@H](C(=O)N[C@@H](CCC(=O)O)C(=O)N[C@@H](Cc1ccc(O)cc1)C(N)=O)C(C)C)[C@@H](C)O` [NLS], the “effect of peptide on LSD1 demethylation activity (absorbance vs time)” value (from here on “effect of peptide … (absorbance vs time)”) (ΔN LSD1-CoREST [1]; listed as NLS peptide) was “inhibits LSD1; also recorded: both inhibit LSD1 activity; also recorded: acted as an inhibitor”, the Ki (ΔN LSD1-CoREST [1]) was 3.3 ± 0.6 µM and the mode of inhibition (ΔN LSD1-CoREST [1]; Lineweaver Burk plot, 0-10 μM NLS peptide, H3K4me2 peptide substrate) was “competitive inhibition; also recorded: competitive inhibitor”. The IC50 (ΔN LSD1-CoREST [2]) was 30.4 ± 3.2 µM.

In the case of “ARTKQTARKSTG [H3 (1−12), histone H3 peptide residues 1-12]”, the Ki (LSD1; supplement numbering ref 5, 6) is listed as 199 µM.

For “ARTKmeQTARKSpTGGKAPRKQLA [H3(1-21) K4me S10p]”, the Ki (LSD1; supplement numbering ref 5, 6) is given as 31 µM.

For “ARTKmeQTARmeKSTGGKAPRKQLA [H3(1-21)K4meR8me]”, the Ki (LSD1; supplement numbering ref 7) is listed as 100 µM.

For “ARTKpropQTARKSTGGKAPRKQLA [H3(1-21) K4propargylamine]”, the Ki (LSD1; supplement numbering ref 9) is given as 16.6 µM.

With Ac-GRRDDRRKRAKVEY-NH2 [NLS-p∗] the “effect of peptide … (absorbance vs time)” value (ΔN LSD1-CoREST [1]) was “do not obstruct LSD1-catalyzed demethylation”, the “effect of peptide … (absorbance vs time)” value (ΔN LSD1-CoREST [1]; listed as NLSp*) was “does not inhibit LSD1-catalyzed” and the “fold weaker inhibition (Ki) compared to the NLS peptide” value (ΔN LSD1-CoREST [1]) was “approximately 12 fold”. For the same compound, the “fold weaker inhibition (Ki) compared to the NLS peptide” value (ΔN LSD1-CoREST [1]; listed as NLSp*) was 10 fold and the Ki (ΔN LSD1-CoREST [1]) was 38.7 ± 1.8 µM.

For “GRRTSRRKme2RAKVEY [NLS-K114me2, dimethylated K114 NLS peptide, aa 107–120]”, the “acts as substrate of LSD1” value (ΔN LSD1-CoREST [1]) was “does not serve as a substrate”, the “acts as substrate of LSD1” value (ΔN LSD1-CoREST [1]; listed as NLS K114me2) was “does NOT act as a substrate of LSD1” and the “effect of peptide … (absorbance vs time)” value (ΔN LSD1-CoREST [1]) was “inhibition of demethylation activity was retained”. The “effect of peptide … (absorbance vs time)” value (ΔN LSD1-CoREST [1]; listed as NLS K114 me2) was “both inhibit LSD1 activity”.

In the case of PRGFLVKRSKKSTPVSYRVR [INSM1 (1−20)], the Ki (LSD1; supplement numbering ref 4) is listed as 0.24 µM.

In the case of PRSFLVRKPSDPNRKPNYSE [SNAIL (1-20)], the Ki (LSD1; supplement numbering ref 4) is given as 0.21 µM.

For “QTARKSTGGKAPRKQLA [H3(5-21), histone H3 peptide residues 5-21]”, the Ki (LSD1; supplement numbering ref 5, 6) is given as 87 µM.

For “REMDESLANLSEDEYY [P1, negatively charged LSD1 peptide region a.a; 121–136]”, the “effect of peptide … (absorbance vs time)” value (ΔN LSD1-CoREST [1]) was “do not inhibit; also recorded: did not influence the demethylation reaction”.

For “YSEEERNAKAEKEKK [P2, neutral-charged α-helical containing LSD1 peptide region a.a; 137–151]”, the “effect of peptide … (absorbance vs time)” value (ΔN LSD1-CoREST [1]) was “do not inhibit; also recorded: did not influence the demethylation reaction”.
